Measurements from ChEMBL document CHEMBL1201862, “PubChem BioAssay data set” (2004).
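Step 1: Grow cells in 96-well plates. Step 2: Expose to compound for 48 hours at 5 concentrations. Step 3: Interpolate endpoints linearly; if unreached, use highest concentration. GI50: concentration for 50% inhibition of growth.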 Active and inactive are the calls of the source. Rule as the data show it: active = GI50 up to about 1.1 µM and inactive = higher.

Tests used:
Assay in all cases: inhibition of tumour cell growth, NCI panel, 48 h
K562 = system: K562
NCI-H522 = system: NCI-H522
SW-620 = system: SW-620
Hs-578T = system: Hs-578T
NCI/ADR-RES = system: NCI/ADR-RES
A549 = system: A549
TK-10 = system: TK-10
HCT-116 = system: HCT-116
SK-OV-3 = system: SK-OV-3
RPMI-8226 = system: RPMI-8226
UACC-62 = system: UACC-62
U-251 = system: U-251
SK-MEL-2 = system: SK-MEL-2
786-0 = system: 786-0
RXF 393 = system: RXF 393
MOLT-4 = system: MOLT-4
SF-268 = system: SF-268
COLO 205 = system: COLO 205
M14 = system: M14
LOX IMVI = system: LOX IMVI

Compound | GI50 (K562) | GI50 (NCI-H522) | GI50 (SW-620) | GI50 (Hs-578T) | GI50 (NCI/ADR-RES) | GI50 (A549) | GI50 (TK-10) | GI50 (HCT-116) | GI50 (SK-OV-3) | GI50 (RPMI-8226) | GI50 (UACC-62) | GI50 (U-251) | GI50 (SK-MEL-2) | GI50 (786-0) | GI50 (RXF 393) | GI50 (MOLT-4) | GI50 (SF-268) | GI50 (COLO 205) | GI50 (M14) | GI50 (LOX IMVI)
COC(=O)[C@@H]1C[C@]2(Br)c3ccccc3N(S(=O)(=O)c3ccccc3)[C@@H]2N1C(=O)OC | > 100 µM (inactive) | > 100 µM (inactive) | > 100 µM (inactive) | 83.9 µM (inactive) | > 100 µM (inactive) | > 100 µM (inactive) | > 100 µM (inactive) | > 100 µM (inactive) | > 100 µM (inactive) | 93.1 µM (inactive) | 62.1 µM (inactive) | > 100 µM (inactive) | 74.5 µM (inactive) | > 100 µM (inactive) | 23 µM (inactive) | > 100 µM (inactive) | > 100 µM (inactive) |  |  | 
COc1ccc2c(c1)CCCN1CCc3ccccc3C21 (configuration not stated) | 45.7 µM (inactive) | 52.1 µM (inactive) | 67.8 µM (inactive) | 35.7 µM (inactive) | 16.8 µM (inactive) | 37.3 µM (inactive) | 43.1 µM (inactive) | 16.8 µM (inactive) | 52.2 µM (inactive) |  | 32.5 µM (inactive) | 28.4 µM (inactive) | 40.5 µM (inactive) | 26.6 µM (inactive) | 25.9 µM (inactive) | 80.4 µM (inactive) | 39.9 µM (inactive) | 22.4 µM (inactive) | 20.4 µM (inactive) | 32.5 µM (inactive)
O=C(NCCCCNCCCNC(=O)C(F)(F)F)C(F)(F)F | > 100 µM (inactive) | > 100 µM (inactive) | > 100 µM (inactive) | > 100 µM (inactive) | > 100 µM (inactive) | > 100 µM (inactive) | > 100 µM (inactive) | > 100 µM (inactive) | 26.8 µM (inactive) | > 100 µM (inactive) | > 100 µM (inactive) | > 100 µM (inactive) | > 100 µM (inactive) | > 100 µM (inactive) | > 100 µM (inactive) | > 100 µM (inactive) | > 100 µM (inactive) | > 100 µM (inactive) | > 100 µM (inactive) | 
CN(C)CCCN1c2ccccc2CCc2cc([N+](=O)[O-])ccc21 | 16.9 µM (inactive) | 15.7 µM (inactive) |  | 16.2 µM (inactive) | 17.2 µM (inactive) | 19.9 µM (inactive) | 14.6 µM (inactive) | 15.7 µM (inactive) |  | 18 µM (inactive) | 14.3 µM (inactive) | 17.4 µM (inactive) | 20 µM (inactive) | 15.2 µM (inactive) | 12.6 µM (inactive) | 15.8 µM (inactive) | 14.7 µM (inactive) | 16.4 µM (inactive) | 16.3 µM (inactive) | 14.4 µM (inactive)
CCn1c(CCl)nc2c1C(=O)c1ccccc1C2=O | 2.36 µM (inactive) | 0.292 µM (active) | 1.33 µM (inactive) | 2.29 µM (inactive) | 2.48 µM (inactive) | 3.4 µM (inactive) | 2.51 µM (inactive) | 2.13 µM (inactive) | 0.515 µM (active) | 2.12 µM (inactive) | 1.28 µM (inactive) | 1.71 µM (inactive) |  | 3.04 µM (inactive) | 1.85 µM (inactive) | 0.356 µM (active) | 2.61 µM (inactive) |  | 1.63 µM (inactive) | 
CCCCCCCC1C(C)c2c([nH]c3ccccc23)C2C(=O)N(c3ccc(OC)cc3)C(=O)C21 (configuration not stated) | 3.11 µM (inactive) | 4.48 µM (inactive) | 3.02 µM (inactive) | 2 µM (inactive) | 1.7 µM (inactive) | 2.33 µM (inactive) | 2.38 µM (inactive) | 1.79 µM (inactive) | 4.68 µM (inactive) | > 5.73 µM (inactive) | 4.24 µM (inactive) | 1.92 µM (inactive) | > 6.59 µM (inactive) | 1.66 µM (inactive) | 2.79 µM (inactive) | 3.2 µM (inactive) | 3.72 µM (inactive) | 3.78 µM (inactive) | 2.74 µM (inactive) | 
COc1ccc2nc3n(c2c1)CCc1cc(OC)c(OC)cc1-3 | 37.9 µM (inactive) | 32.2 µM (inactive) | 71.3 µM (inactive) | 85.7 µM (inactive) | 45.2 µM (inactive) | 44.5 µM (inactive) | 86.3 µM (inactive) | 47.8 µM (inactive) | > 100 µM (inactive) |  | 32.3 µM (inactive) | 60.8 µM (inactive) | > 100 µM (inactive) | 49.8 µM (inactive) | > 100 µM (inactive) |  | > 100 µM (inactive) | 26.1 µM (inactive) | 39.9 µM (inactive) | 45.8 µM (inactive)
C[C@]12CC[C@@H]3c4ccc(OCC(=O)O)cc4CC[C@H]3[C@@H]1CCC2=O |  | > 100 µM (inactive) | > 100 µM (inactive) | > 100 µM (inactive) | > 100 µM (inactive) | > 100 µM (inactive) | > 100 µM (inactive) | > 100 µM (inactive) | > 100 µM (inactive) | > 100 µM (inactive) | > 100 µM (inactive) | > 100 µM (inactive) | > 100 µM (inactive) | > 100 µM (inactive) | > 100 µM (inactive) | 15.1 µM (inactive) | > 100 µM (inactive) | > 100 µM (inactive) | > 100 µM (inactive) | > 100 µM (inactive)
CSc1c(C(=O)Nc2ccccc2)c(N)nn1-c1ccccc1 | > 100 µM (inactive) |  | > 100 µM (inactive) | > 100 µM (inactive) | > 100 µM (inactive) | > 100 µM (inactive) | > 100 µM (inactive) | > 100 µM (inactive) | > 100 µM (inactive) | > 100 µM (inactive) | > 100 µM (inactive) | > 100 µM (inactive) | > 100 µM (inactive) | > 100 µM (inactive) | 56.9 µM (inactive) | > 100 µM (inactive) | > 100 µM (inactive) | > 100 µM (inactive) | > 100 µM (inactive) | > 100 µM (inactive)
CN1/C(=C\N=O)C(C)(C)N(O)C1(C)C | > 100 µM (inactive) | > 100 µM (inactive) | > 100 µM (inactive) | > 100 µM (inactive) | > 100 µM (inactive) | > 100 µM (inactive) | > 100 µM (inactive) | > 100 µM (inactive) | > 100 µM (inactive) | > 100 µM (inactive) | > 100 µM (inactive) | > 100 µM (inactive) | > 100 µM (inactive) | > 100 µM (inactive) |  | > 100 µM (inactive) | > 100 µM (inactive) | > 100 µM (inactive) | > 100 µM (inactive) | > 100 µM (inactive)
CCOc1cc2c(=O)oc3c(OC)ccc4ccc(c1OC)c2c43 | > 100 µM (inactive) | 16.7 µM (inactive) | > 100 µM (inactive) | 44.8 µM (inactive) | 36.2 µM (inactive) | 28.5 µM (inactive) | > 100 µM (inactive) | 6.64 µM (inactive) | 25.1 µM (inactive) |  | > 100 µM (inactive) | 34.5 µM (inactive) | > 100 µM (inactive) | 36.5 µM (inactive) | 52.7 µM (inactive) | > 100 µM (inactive) | > 100 µM (inactive) | > 100 µM (inactive) | 45.3 µM (inactive) | > 100 µM (inactive)
CCCCCCCCCCCCCCCCCC(=O)OCC(COC1OC(CS(=O)(=O)O)C(O)C(O)C1O)OC(=O)CCCCCCCCCCCCCCCCC (configuration not stated) | > 100 µM (inactive) | > 100 µM (inactive) | > 100 µM (inactive) | > 100 µM (inactive) | > 100 µM (inactive) | > 100 µM (inactive) | > 100 µM (inactive) | > 100 µM (inactive) | > 100 µM (inactive) | > 100 µM (inactive) | > 100 µM (inactive) | > 100 µM (inactive) |  | > 100 µM (inactive) | > 100 µM (inactive) | > 100 µM (inactive) | > 100 µM (inactive) | > 100 µM (inactive) | > 100 µM (inactive) | > 100 µM (inactive)
CCOP(=O)(O)CN1CCNCCN(CP(=O)(O)OCC)CCNCC1 | > 100 µM (inactive) | > 100 µM (inactive) | > 100 µM (inactive) | > 100 µM (inactive) | > 100 µM (inactive) | > 100 µM (inactive) | > 100 µM (inactive) | > 100 µM (inactive) | > 100 µM (inactive) | > 100 µM (inactive) | > 100 µM (inactive) | > 100 µM (inactive) | > 100 µM (inactive) | > 100 µM (inactive) | > 100 µM (inactive) | > 100 µM (inactive) |  | 91.4 µM (inactive) |  | > 100 µM (inactive)
CC(C)C(C/C=C1\CC(CO)(COC(=O)c2ccccc2)OC1=O)C(C)C (configuration not stated) | 12 µM (inactive) | 21.6 µM (inactive) | 18 µM (inactive) | 13.1 µM (inactive) | 20.7 µM (inactive) | 15.8 µM (inactive) | 19 µM (inactive) | 17.2 µM (inactive) | 28.1 µM (inactive) |  | > 100 µM (inactive) | 19.1 µM (inactive) | > 100 µM (inactive) | 14.8 µM (inactive) | 23 µM (inactive) | 18.2 µM (inactive) | 19 µM (inactive) | 11.5 µM (inactive) | 14.8 µM (inactive) | 19.5 µM (inactive)
CC(=O)C1C(=O)C(=O)N(c2ccc([N+](=O)[O-])cc2)C1=O (configuration not stated) |  | > 100 µM (inactive) | > 100 µM (inactive) | > 100 µM (inactive) | > 100 µM (inactive) | 80.4 µM (inactive) | > 100 µM (inactive) | > 100 µM (inactive) | > 100 µM (inactive) |  | > 100 µM (inactive) | > 100 µM (inactive) | 66.2 µM (inactive) | > 100 µM (inactive) | > 100 µM (inactive) | > 100 µM (inactive) | > 100 µM (inactive) | > 100 µM (inactive) | > 100 µM (inactive) | > 100 µM (inactive)
